Test results as given in patent publication US7794994B2 (Kemeta, LLC, priority 2001, dated 2010).
Values belong to the molecule of their own block, whether it stands above or below them.

Assays:
[1] = constant perfusion at 1.36 mmol/min. for three hours; cited from earlier work
S-ADH from C. boidinii = assay: S-ADH spectrophotometric assay, C. boidinii S-ADH; format: biochemical, Candida boidinii; conditions: pH 7.6, 5 mM substrate
Experimental: Assays were performed in 2 mL quartz cuvettes and contained NAD(H) (0.2 mM), potassium phosphate buffer (25 mM), and a source of enzyme (cell-free extracts, column fractions, or purified enzyme) in a total reaction volume of 1 mL at pH 6.2 ([…]) at 30° C. Assays were pre-incubated for 1.5 min. at 30° C. with all assay components except substrate. […]

S-ADH from T. brockii = molecular target: T1, S-ADH from T. brockii (Thermoanaerobacter brockii, UniProt P14941); assay: S-ADH spectrophotometric assay, T. brockii S-ADH; format: biochemical, Thermoanaerobium brockii
T1 sequence (P14941 1-352): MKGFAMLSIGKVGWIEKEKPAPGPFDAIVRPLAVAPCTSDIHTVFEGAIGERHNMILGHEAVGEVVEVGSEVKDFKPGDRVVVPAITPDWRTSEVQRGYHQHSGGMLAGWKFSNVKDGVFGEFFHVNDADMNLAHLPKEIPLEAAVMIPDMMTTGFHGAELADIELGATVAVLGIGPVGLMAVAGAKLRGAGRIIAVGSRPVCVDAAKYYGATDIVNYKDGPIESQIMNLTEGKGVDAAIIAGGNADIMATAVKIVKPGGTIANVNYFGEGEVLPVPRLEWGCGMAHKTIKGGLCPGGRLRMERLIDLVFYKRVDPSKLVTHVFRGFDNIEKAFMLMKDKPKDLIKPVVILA
Experimental: […] Assays were pre-incubated for 1.5 min. at 30° C. with all assay components except substrate. Assays were initiated by addition of substrate (2.5 mM) and monitored over time by measuring the change in absorbance at 340 nm (∈340 of 6.22 mM^−1·cm^−1 for NADH).

S-ADH from strain IP-1 = assay: S-ADH spectrophotometric assay, partially purified S-ADH of isolate IP-1; format: biochemical, isopropanol-grown bacterial strain TDCC IP-1
Experimental: Protein purifications. […] Secondary alcohol dehydrogenase (S-ADH) from X. autotrophicus Py2 was purified via the following protocol. Cell-free extracts (380 mL) of isopropanol-grown X. autotrophicus Py2 (150 g) were prepared as described above, and applied to a 5×15 cm column of DEAE-Sepharose FAST FLOW (Diethylaminoethyl cross-linked agarose bead material; Catalog number 17-0709-10, Amersham Pharmacia Biotech, Piscataway, N.J.)) equilibrated in buffer A (25 mM MOPS (3-(N-morpholino)propanesulfonic acid), pH 7.6, 5% glycerol, 1 mM dithiothreitol) at a flow rate of 10 mL/min. After loading, the column was washed with […] buffer A and developed with a 2400 mL linear gradient of 90-290 mM KCl in buffer A. Fractions containing S-ADH activity were pooled and dialyzed against 2 L of 25 mM potassium phosphate (pH 6.2) containing 5% glycerol (buffer B) for 16 h at 4° C. […] After washing the column with 30 mL of buffer B, S-ADH was eluted with 20 mL of buffer A containing 10 mM NAD^+. Fractions containing S-ADH were then dialyzed against 2 L of buffer A for 16 h at 4° C., concentrated by ultrafiltration (using a YM30 ultrafiltration membrane; catalog no. 13722, from Millipore, Bedford, Mass.), and frozen in liquid nitrogen. Partially purified S-ADH from bacterial screen cultures was prepared as follows: cell-free extracts from 1 to 5 g of cell paste were prepared as described above and applied to a 5 mL HI TRAP Q column (quaternary, tetraethylammonium, cross-linked agarose bead material for use as an anion exchange matrix; catalog number 17-1153-01, Amersham Pharmacia Biotech) equilibrated in 100 mM MOPS, pH 7.6, containing 5% (v/v) glycerol (buffer C). The column was washed with 10 mL buffer C and developed with a 100 mL linear gradient of 0 to 100 mM NaCl in buffer C. Fractions containing S-ADH activity were pooled, concentrated to 0.5 mL using a 30 kDa MWCO (“molecular weight cut-off”) centrifugal membrane (catalog number UFV4BTK25, Millipore), and stored at −80° C.
(§1) Assays were performed in 2 mL quartz cuvettes and contained NAD(H) (0.2 mM), potassium phosphate buffer (25 mM), and a source of enzyme (cell-free extracts, column fractions, or purified enzyme) in a total reaction volume of 1 mL at pH 6.2 ([…]) at 30° C. Assays were pre-incubated for 1.5 min. at 30° C. with all assay components except substrate. Assays were initiated by addition of substrate (2.5 mM) and monitored over time by measuring the change in absorbance at 340 nm (∈340 of 6.22 mM^−1·cm^−1 for NADH).

[2] = tested on: S-ADH from M. vaccae JOB-5; assay: S-ADH spectrophotometric assay, propane-grown M. vaccae JOB-5; format: biochemical, Mycobacterium vaccae strain JOB-5
Experimental: as §1

[3] = tested on: S-ADH from X. autotrophicus strain Py2; assay: Secondary alcohol dehydrogenase NADH oxidation spectrophotometric assay; format: biochemical, Xanthobacter autotrophicus strain Py2
Experimental: as §1
Data analysis. Kinetic constants (Km and Vmax) were calculated by fitting initial rate data to the Michaelis-Menten equation and using the software KaleidaGraph Fourth Edition, (Synergy Software, Reading, Pa.).

[4] = tested on: 3-enzyme system (S-ADH coupled to lactate dehydrogenase and pyruvate oxidase); assay: S-ADH coupled to H2O2 formation electrochemical assay (3-enzyme system), interference compounds; format: biochemical, X. autotrophicus Py2; conditions: Acetone plus 10 mM ethanol, 50 μM isopropanol or 50 μM isobutanol; data not shown
Experimental: Secondary alcohol dehydrogenase coupled to H2O2 formation electrochemical assay. […] Before measurements the electrode surface was polished using Al2O3 paste for 1 min. and then rinsed with deionized water, sonicated for 1 min. and rinsed with water again. The polished Pt electrode was then pretreated electrochemically by applying 10 cycles of 100 mV/s from +200 mV to +900 mV. All potentials were referenced versus a Ag/AgCl electrode (BAS part number MF-2078). Assays contained potassium phosphate (100 mM, pH 7.2), purified S-ADH (1 U/mL), NADH (201 μM), lactate (100 mM), lactate dehydrogenase (5 U/mL), pyruvate oxidase (4 U/mL), flavin adenine dinucleotide (0.01 mM), cocarboxylase (0.2 mM), in a total volume of 0.5 mL. […] After a 2 min. incubation period, the potential was stepped from open circuit to 350 mV.

[5] = ketone reduction rates, pH 6.2, 2.5 mM substrate, 0.2 mM NADH, acetone = 100
[6] = alcohol oxidation rates, pH 7.6, 2.5 mM substrate, 0.2 mM NAD+, 2-propanol = 100, NA = no activity detected

SMILES: CC(=O)CC(=O)[O-].[Na+] [Na acetoacetate]
blood ketone body concentration at the end of perfusion [1]: 3 µmol·mL

SMILES: CCC(=O)CC [3-Pentanone]
Relative S-ADH Activity (%) C. boidinii, ketone reduction (S-ADH from C. boidinii; ketone reduction rates, 0.2 mM NADH, acetone = 100): 60% | Relative S-ADH Activity (%) T. brockii, ketone reduction (S-ADH from T. brockii; ketone reduction rates, pH 6.2, 2.5 mM substrate, 0.2 mM NADPH, acetone = 100): 49% | Relative S-ADH Activity (%) IP-1, ketone reduction (S-ADH from strain IP-1; [5]): 5% | Relative S-ADH Activity (%) JOB 5, ketone reduction [2, 5]: 26% | Relative S-ADH Activity (%) X. Py2, ketone reduction [3, 5]: 180%

interference with the acetone measurement (current response) [4]: do not interfere
SMILES: CC(C)CO [isobutanol]

Km ([3]; acetone at fixed saturating concentration, read-out: Km for NADH): 5.1 ± 0.4 µM | ability to serve as electron donor in acetone reduction assays ([3]; data not shown): could serve as the electron donor
SMILES: NC(=O)C1=CN([C@@H]2O[C@H](COP(=O)(O)OP(=O)(O)OC[C@H]3O[C@@H](n4cnc5c(N)ncnc54)[C@H](O)[C@@H]3O)[C@@H](O)[C@H]2O)C=CC1 [NADH, nicotinamide adenine dinucleotide, reduced form]

SMILES: CCCC(C)O (centres unmarked) [2-Pentanol]
Relative S-ADH Activity (%) C. boidinii, alcohol oxidation (S-ADH from C. boidinii; alcohol oxidation rates, 0.2 mM NAD+, 2-propanol = 100): 22% | Relative S-ADH Activity (%) T. brockii, alcohol oxidation (S-ADH from T. brockii; alcohol oxidation rates, pH 7.6, 2.5 mM substrate, 0.2 mM NADP+, 2-propanol = 100, NA = no activity detected): 38% | Relative S-ADH Activity (%) IP-1, alcohol oxidation (S-ADH from strain IP-1; [6]): 18% | Relative S-ADH Activity (%) JOB 5, alcohol oxidation [2, 6]: 68% | Relative S-ADH Activity (%) X. Py2, alcohol oxidation [3, 6]: 157%
